Measured values as given in US20240368120A1 (Terns Pharmaceuticals, Inc., priority 2023, published 2024).

How the values were obtained:
[1] = target: T1, human GLP-1R receptor (Homo sapiens, UniProt P43220); assay: GLP-1R low expression cell assay (cAMP TR-FRET, CHO-K1_hGLP-1Rlow_clone10 cells); type: cell-based; details: for EC50: cAMP TR-FRET, 30 min at 25° C.; for Emax: maximum activation relative to control GLP-1 peptide agonist
T1 construct: expressed in transfected cells
Summary of the method: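 CHO-K1 cells stably expressing low surface human GLP-1R (clone10), 1,000 cells/well, exposed to 10-point 3-fold compound dilutions for 30 min at 25 °C. cAMP measured by TR-FRET (Eu-cAMP tracer/ULight-anti-cAMP, 15 min). EC50 from Hill fit of duplicate percent activation relative to a parallel GLP-1 control agonist.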

[2] = Rat pharmacokinetics, intravenous dosing; type: in vivo, Sprague-Dawley rats; details: male, Sprague-Dawley, IV bolus dosing at 3.0 mg/kg, plasma
Protocol: Intravenous dosing: Compounds were formulated at 1.0 mg/mL in a solution comprising 5% polyethylene glycol 400 and 95% (12% (w/v) sulfobutyl-β-cyclodextrin in water) (v/v). Formulated compounds were sterile filtered through a 0.22 micron filter before dosing. Compounds were administered to male, 7-11-week-old Sprague-Dawley rats by jugular vein cannula infusion over 30 minutes at a dose of 1 mg/kg. Oral dosing: Compounds were formulated at 1.0 mg/mL in a solution comprising 5% polyethylene glycol 400 and 95% (12% (w/v) sulfobutyl-β-cyclodextrin in water) (v/v). Formulated compounds were administered to male, 7-11 week old Sprague-Dawley rats by oral gavage at a dose of 10 mg/kg or 3 mg/kg.
Sample collection: Blood collections of about 0.2 mL per time point were performed from jugular vein or other suitable site of each animal, into pre-chilled commercial EDTA-K2 tubes and placed on wet ice until centrifugation. Blood samples were processed for plasma by centrifugation at approximately 4° C., 3,200 g for 10 min. Plasma was collected and transferred into pre-labeled 96 well plate or polypropylene tubes, quick frozen over dry ice and kept at −60° C. or lower until
Data analysis: Plasma concentration versus time data was plotted in graph and analyzed by non-compartmental approaches using the Phoenix WinNonlin 6.3 software program. Related PK parameters were calculated according to dosing route, e.g., CL, Vdss and C0 for intravenous administration, Cmax, Tmax or % F for extravascular administration, and T1/2, AUC(0-t), AUC(0-inf), MRT(0-t), MRT(0-inf) for all routes.

T1 sequence (P43220 24-463): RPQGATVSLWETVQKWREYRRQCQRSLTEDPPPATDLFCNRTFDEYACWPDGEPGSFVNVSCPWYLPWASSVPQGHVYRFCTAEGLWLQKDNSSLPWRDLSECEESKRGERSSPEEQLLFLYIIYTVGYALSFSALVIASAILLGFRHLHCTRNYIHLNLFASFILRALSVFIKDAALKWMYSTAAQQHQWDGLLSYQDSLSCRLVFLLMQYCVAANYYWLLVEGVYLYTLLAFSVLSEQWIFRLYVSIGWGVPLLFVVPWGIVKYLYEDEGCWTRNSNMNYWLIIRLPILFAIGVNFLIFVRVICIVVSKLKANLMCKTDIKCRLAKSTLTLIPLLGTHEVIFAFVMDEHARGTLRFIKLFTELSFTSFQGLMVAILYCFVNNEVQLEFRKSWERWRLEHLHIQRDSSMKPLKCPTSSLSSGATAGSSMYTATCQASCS

| EC50 [1] | Emax [1] | AUC [2] | C0 [2] | half-life ([2]; read-out: Rat T1/2) | Structure (SMILES) |
| --- | --- | --- | --- | --- | --- |
| < 10 nM | > 85% | < 500 ng·h/mL | > 2000 ng/mL | < 1.5 h | COc1cc(C(=O)O)cc2c1nc(CN1CCC(c3cccc(OCc4ccc(C#N)cc4F)n3)CC1)n2Cc1cncs1 [Compound 1, 2-((4-(6-((4-Cyano-2-fluorobenzyl)oxy)pyridin-2-yl)piperidin-1-yl)methyl)-4-methoxy-1-(thiazol-5-ylmethyl)-1H-benzo[d]imidazole-6-carboxylic acid] |
| < 10 nM | > 85% | – | – | – | COc1cc(C(=O)O)cc2c1nc(CN1CCC(c3cccc(OCc4ccc(C#N)cc4F)n3)CC1)n2C[C@@H]1CCO1 [Compound 8, (S)-2-((4-(6-((4-Cyano-2-fluorobenzyl)oxy)pyridin-2-yl)piperidin-1-yl)methyl)-4-methoxy-1-(oxetan-2-ylmethyl)-1H-benzo[d]imidazole-6-carboxylic acid] |
